Assay results from patent US11339160B2, “Imidazole and triazole containing bicyclic compounds as JAK inhibitors” (THERAVANCE BIOPHARMA R&D IP, LLC, priority 2019, dated 2022).

molecular target: JAK3 (Homo sapiens (Human), UniProt P52333); test: Biochemical JAK3 kinase assay (LanthaScreen); details: selectivity, difference of pKi values
Experimental: Assay 1: Biochemical JAK and Tyk2 Kinase Assays
A panel of four LanthaScreen JAK biochemical assays (JAK1, 2, 3 and Tyk2) were carried in a common kinase reaction buffer (50 mM HEPES, pH 7.5, 0.01% Brij-35, 10 mM MgCl2, and 1 mM EGTA). Recombinant GST-tagged JAK enzymes and a GFP-tagged STAT1 peptide substrate were obtained from Life Technologies.
Serially or discretely diluted compounds were pre-incubated with each of the four JAK enzymes and the substrate in white 384-well microplates (Corning) at ambient temperature for 1 h. ATP was subsequently added to initiate the kinase reactions in 10 μL total volume, with 1% DMSO. […] Kinase reactions were allowed to proceed for 1 hour at ambient temperature before a 10 μL preparation of EDTA (10 mM final concentration) and Tb-anti-pSTAT1 (pTyr701) antibody (Life Technologies, 2 nM final concentration) in TR-FRET dilution buffer (Life Technologies) was added. The plates were allowed to incubate at ambient temperature for 1 h before being read on the EnVision reader (Perkin Elmer). Emission ratio signals (520 nm/495 nm) were recorded and utilized to calculate the percent inhibition values based on DMSO and background controls.
For dose-response analysis, percent inhibition data were plotted vs. compound concentrations, and IC50 values were determined from a 4-parameter robust fit model with the Prism software (GraphPad Software). Results were expressed as pIC50 (negative logarithm of IC50) and subsequently converted to pKi (negative logarithm of dissociation constant, Ki) using the Cheng-Prusoff equation.

Sequence of JAK3 (P52333 whole entry): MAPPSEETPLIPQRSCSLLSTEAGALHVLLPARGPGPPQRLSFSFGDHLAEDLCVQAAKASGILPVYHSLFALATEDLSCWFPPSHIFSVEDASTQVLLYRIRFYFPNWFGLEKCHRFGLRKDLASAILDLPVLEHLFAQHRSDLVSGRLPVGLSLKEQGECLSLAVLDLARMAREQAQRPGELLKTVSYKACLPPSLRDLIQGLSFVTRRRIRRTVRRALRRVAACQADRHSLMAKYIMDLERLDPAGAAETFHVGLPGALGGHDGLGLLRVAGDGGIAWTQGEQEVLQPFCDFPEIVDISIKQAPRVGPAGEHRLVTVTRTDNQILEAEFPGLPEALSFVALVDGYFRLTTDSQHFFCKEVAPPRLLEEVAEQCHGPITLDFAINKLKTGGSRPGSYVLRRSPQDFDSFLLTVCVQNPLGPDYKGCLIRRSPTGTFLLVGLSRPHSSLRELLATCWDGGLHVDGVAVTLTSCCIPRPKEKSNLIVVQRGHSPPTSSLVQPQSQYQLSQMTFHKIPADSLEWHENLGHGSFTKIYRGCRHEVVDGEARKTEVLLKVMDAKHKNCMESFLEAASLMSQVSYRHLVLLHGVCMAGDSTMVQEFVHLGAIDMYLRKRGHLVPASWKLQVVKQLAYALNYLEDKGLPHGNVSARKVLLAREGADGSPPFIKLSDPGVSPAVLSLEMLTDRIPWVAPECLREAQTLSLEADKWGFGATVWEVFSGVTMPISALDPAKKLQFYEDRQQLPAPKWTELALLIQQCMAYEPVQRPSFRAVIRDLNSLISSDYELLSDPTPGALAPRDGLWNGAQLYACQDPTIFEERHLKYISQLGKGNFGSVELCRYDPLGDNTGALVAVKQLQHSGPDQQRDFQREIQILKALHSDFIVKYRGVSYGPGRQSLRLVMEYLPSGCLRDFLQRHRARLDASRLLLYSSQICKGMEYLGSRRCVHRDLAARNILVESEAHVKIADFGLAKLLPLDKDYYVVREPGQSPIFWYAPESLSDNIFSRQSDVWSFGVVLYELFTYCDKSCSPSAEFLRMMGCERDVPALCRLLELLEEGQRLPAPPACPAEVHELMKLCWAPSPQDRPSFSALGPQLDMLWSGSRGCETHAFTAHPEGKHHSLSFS

Row | Structure (SMILES) | JAK3 (pKi)-JAK1 (pKi)
1 | C=CC(=O)N1CC(COc2cc(-c3ccc(O)c(Cl)c3)cn3cncc23)C1 [Example 12, 1-(3-(((6-(3-chloro-4-hydroxyphenyl)imidazo[1,5-a]pyridin-8-yl)oxy)methyl)azetidin-1-yl)prop-2-en-1-one] | A (a value of 3 or above)
2 | C=CC(=O)N1CC(COc2cc(-c3ccc(O)cc3)cn3cnnc23)C1 [Example 5, 1-(3-(((6-(4-hydroxyphenyl)-[1,2,4]triazolo[4,3-a]pyridin-8-yl)oxy)methyl)azetidin-1-yl)prop-2-en-1-one] | A (a value of 3 or above)
3 | C=CC(=O)N1CC(COc2nc(-c3ccc(O)cc3)cn3cncc23)C1 [Example 6, 1-(3-(((6-(4-hydroxyphenyl)imidazo[1,5-a]pyrazin-8-yl)oxy)methyl)azetidin-1-yl)prop-2-en-1-one] | A (a value of 3 or above)
4 | C=CC(=O)N1CCC[C@H](Oc2cc(-c3cc(F)c(O)cc3CC)cn3cncc23)C1 [Example 16] | B (a value of 2.3 to 3)
5 | C=CC(=O)N1CCC(COc2cc(-c3ccc(O)cc3)cn3cncc23)CC1 [Example 2, 1-(4-(((6-(4-hydroxyphenyl)imidazo[1,5-a]pyridin-8-yl)oxy)methyl)piperidin-1-yl)prop-2-en-1-one] | A (a value of 3 or above)
6 | C=CC(=O)N1CC(COc2cc(-c3ccc(O)cc3C(F)(F)F)cn3cncc23)C1 [Example 42] | A (a value of 3 or above)
7 | C=CC(=O)N1CC(COc2cc(-c3ccc(O)cc3CC)cn3cncc23)C1 [Example 21] | A (a value of 3 or above)
8 | C=CC(=O)N1CC2(CCC2Oc2cc(-c3cc(F)c(O)cc3CC)cn3cncc23)C1 (centres unmarked) [Example 46] | B (a value of 2.3 to 3)
9 | C=CC(=O)N1[C@@H]2CC[C@H]1C[C@H](Oc1cc(-c3cc(F)c(O)cc3CC)cn3cncc13)C2 [Example 48] | A (a value of 3 or above)
10 | C=CC(=O)N1CCC[C@H](Nc2cc(-c3ccc(O)cc3)cn3cncc23)C1 [Example 51] | B (a value of 2.3 to 3)
11 | C=CC(=O)N1CCC(Nc2cc(-c3ccc(O)cc3)cn3cncc23)CC1 [Example 4, 1-(4-((6-(4-hydroxyphenyl)imidazo[1,5-a]pyridin-8-yl)amino)piperidin-1-yl)prop-2-en-1-one] | B (a value of 2.3 to 3)
12 | C=CC(=O)N1[C@H](C)C[C@H](Oc2cc(-c3ccc(O)cc3)cn3cncc23)C[C@@H]1C [Example 40] | B (a value of 2.3 to 3)
13 | CCc1cc(O)ccc1-c1cc(OCC2CN(C(=O)/C=C/CN(C)C)C2)c2cncn2c1 [Example 25] | A (a value of 3 or above)
14 | C=CC(=O)N1CC2(CCC2Oc2cc(-c3ccc(O)cc3)cn3cncc23)C1 (centres unmarked) [Example 3, 1-(5-((6-(4-hydroxyphenyl)imidazo[1,5-a]pyridin-8-yl)oxy)-2-azaspiro[3.3]heptan-2-yl)prop-2-en-1-one] | A (a value of 3 or above)
15 | C=CC(=O)N1CC(COc2cc(-c3ccc(O)cc3C)cn3cncc23)C1 [Example 44] | A (a value of 3 or above)
16 | CCc1cc(O)c(F)cc1-c1cc(OCC2CN(C(=O)/C=C/CN(C)C)C2)c2cncn2c1 [Example 24] | A (a value of 3 or above)
17 | C=CC(=O)N1[C@@H]2CC[C@H]1C[C@@H](Oc1cc(-c3ccc(O)cc3)cn3cncc13)C2 [Example 36] | A (a value of 3 or above)
18 | C=CC(=O)N1CC(COc2cc(-c3cc(C)c(O)cc3C)cn3cncc23)C1 [Example 43] | A (a value of 3 or above)
19 | C=CC(=O)N1CC[C@@H](Oc2cc(-c3ccc(O)cc3)cn3cncc23)[C@@H](C)C1 [Example 41] | A (a value of 3 or above)
20 | C=CC(=O)N1CC(COc2cc(-c3cc(Cl)c(O)c(Cl)c3)cn3cncc23)C1 [Example 33] | A (a value of 3 or above)
21 | C=CC(=O)N1CC(COc2cc(-c3cc(F)c(O)c(F)c3)cn3cncc23)C1 [Example 32] | A (a value of 3 or above)

Row | Structure (SMILES) | JAK3 (pKi)-JAK1 (pKi)
22 | C=CC(=O)N1CC(COc2cc(-c3ccc(O)cc3)cn3cncc23)C1 [Example 11, 1-(3-(((6-(4-hydroxyphenyl)imidazo[1,5-a]pyridin-8-yl)oxy)methyl)azetidin-1-yl)prop-2-en-1-one] | A (a value of 3 or above)
23 | C=CC(=O)N1CC[C@@H](Oc2cc(-c3ccc(O)cc3)cn3cncc23)C[C@@H]1C [Example 39] | A (a value of 3 or above)
24 | CN(C)C/C=C/C(=O)N1CC(COc2cc(-c3ccc(O)cc3)cn3cncc23)C1 [Example 19] | A (a value of 3 or above)
25 | C=CC(=O)N1CC[C@H](Oc2cc(-c3ccc(O)cc3)cn3cncc23)C1 [Example 1, (S)-1-(3-((6-(4-hydroxyphenyl)imidazo[1,5-a]pyridin-8-yl)oxy)pyrrolidin-1-yl)prop-2-en-1-one] | A (a value of 3 or above)
26 | C=CC(=O)N1CCC(Oc2cc(-c3cc(F)c(O)cc3CC)cn3cncc23)C(F)(F)C1 (centres unmarked) [Example 49] | C (a value of 1.8 to 2.3)
27 | CCc1cc(O)c(F)cc1-c1cc(O[C@H]2CCCN(C(=O)/C=C/CN(C)C)C2)c2cncn2c1 [Example 18] | B (a value of 2.3 to 3)
28 | C=CC(=O)N1CC(CSc2cc(-c3ccc(O)cc3)cn3cncc23)C1 [Example 29] | A (a value of 3 or above)
29 | CN(C)C/C=C/C(=O)N1CC(COc2cc(-c3ccc(O)c(F)c3)cn3cncc23)C1 [Example 22] | A (a value of 3 or above)
30 | C=CC(=O)N1[C@@H]2CC[C@H]1C[C@H](Nc1cc(-c3ccc(O)cc3)cn3cncc13)C2 [Example 50] | B (a value of 2.3 to 3)
31 | C=CC(=O)N1CC(COc2cc(-c3cc(C)c(O)c(C)c3)cn3cncc23)C1 [Example 35] | A (a value of 3 or above)
32 | C=CC(=O)N1CCC(Oc2cc(-c3ccc(O)cc3)cn3cncc23)CC1 [Example 30] | A (a value of 3 or above)
33 | C=CC(=O)N1CC(CNc2cc(-c3ccc(O)cc3)cn3cncc23)C1 [Example 52] | B (a value of 2.3 to 3)
34 | C=CC(=O)N1CC2(CC(Oc3cc(-c4ccc(O)cc4)cn4cncc34)C2)C1 [Example 37] | A (a value of 3 or above)
35 | C=CC(=O)N1CC[C@H](Oc2cc(-c3ccc(O)cc3)cn3cncc23)C[C@@H]1C [Example 38] | A (a value of 3 or above)
36 | CN(C)C/C=C/C(=O)N1CC(COc2cc(-c3ccc(O)c(Cl)c3)cn3cncc23)C1 [Example 23] | A (a value of 3 or above)
37 | C=CC(=O)N1CCC(Oc2cc(-c3ccc(O)cc3)cn3cncc23)C(F)(F)C1 (centres unmarked) [Example 14, 1-(3,3-difluoro-4-((6-(4-hydroxyphenyl)imidazo[1,5-a]pyridin-8-yl)oxy)piperidin-1-yl)prop-2-en-1-one] | A (a value of 3 or above)
38 | C=CC(=O)N1CCC[C@H](Oc2cc(-c3ccc(O)cc3)cn3cncc23)C1 [Example 27] | A (a value of 3 or above)
39 | C=CC(=O)N1CC(COc2cc(-c3ccc(O)cc3OC)cn3cncc23)C1 [Example 45] | A (a value of 3 or above)
40 | C=CC(=O)N1CC[C@H](COc2cc(-c3ccc(O)cc3)cn3cncc23)C1 [Example 26] | A (a value of 3 or above)
41 | C=CC(=O)N1CCC(Oc2cc(-c3cc(F)c(O)cc3CC)cn3cncc23)CC1 [Example 47] | B (a value of 2.3 to 3)

tested on: IL-2 stimulated STAT5 phosphorylation in CD4+ T cells isolated from murine splenocytes; test: Inhibition of IL-2 stimulated pSTAT5 in CD4+ T cells isolated from murine splenocytes; assay type: cell-based; details: Mus musculus, IL-2 7 ng/ml, read-out: pIC50, inhibition of IL-2 stimulated pSTAT5 (converted)
Experimental: Assay 3: Inhibition of IL-2 Stimulated pSTAT5 in CD4+ T Cells Isolated from Murine Splenocytes
The potency of test compounds for inhibition of interleukin-2 (IL-2) stimulated STAT5 phosphorylation was measured in the CD4+ T cells isolated from murine splenocytes using AlphaLisa. Because IL-2 signals through JAK3, this assay provides a measure of JAK3 cellular potency in mouse.
Phosphorylated STAT5 was measured via the AlphaLISA SureFire Ultra pSTAT5 (Tyr694/699) kit (PerkinElmer).
CD4+ T cells were isolated from murine splenocytes via negative selection on a magnetic column (Miltnyi Biotec) and re-suspended in assay media (phenol red-free DMEM (Life Technologies) supplemented with 10% FBS (ATCC)). Cells were seeded at 50,000 cells/well in assay media (2 μL/well). Compounds were serially diluted in DMSO and diluted to 2× final concentration in assay media. Compound was added (4 μl/well) and the cells incubated at 37° C., 5% CO2 for 1 hour, followed by the addition of IL-2 (R&D Systems; final concentration 7 ng/ml) in pre-warmed assay media (2 μL) for 30 minutes. After cytokine stimulation, cells were lysed with 2 μl of 5× AlphaLisa Lysis Buffer (PerkinElmer). The lysate was shaken at 900 rpm for 10 minutes at room temperature (RT). Phosphorylated STAT5 was measured via the pSTAT5 AlphaLisa kit (PerkinElmer). Freshly prepared acceptor bead mixture was dispensed onto lysate (5 ul) under green filtered <100 lux light. Plates were shaken at 900 rpm for 2 mins, briefly spun down, and incubated for 2 hrs at RT in the dark. Donor beads were dispensed (5 μl) under green filtered <100 lux light. Plates were shaken at 900 rpm for 2 mins, briefly spun down, and incubated overnight at RT in the dark. Luminescence was measured with excitation at 689 nm and emission at 570 nm using an EnVision plate reader (PerkinElmer) under green filtered <100 lux light.
To determine the inhibitory potency of test compounds in response to IL-2, the average emission intensity of beads bound to pSTAT5 was measured in primary CD4+ T cells isolated from murine splenocytes. IC50 values were determined from analysis of the inhibition curves of signal intensity vs compound concentration. Data are expressed as pIC50 (negative decadic logarithm IC50) values (mean standard deviation).

Row | Structure (SMILES) | IC50
42 | C=CC(=O)N1CC(COc2cc(-c3ccc(O)c(Cl)c3)cn3cncc23)C1 [Example 12, 1-(3-(((6-(3-chloro-4-hydroxyphenyl)imidazo[1,5-a]pyridin-8-yl)oxy)methyl)azetidin-1-yl)prop-2-en-1-one] | < 1000 nM
43 | CCc1cc(O)c(F)cc1-c1cc(OCC2CN(C(=O)/C=C/CN(C)C)C2)c2cncn2c1 [Example 24] | < 1000 nM
44 | C=CC(=O)N1CC(COc2cc(-c3ccc(O)cc3)cn3cncc23)C1 [Example 11, 1-(3-(((6-(4-hydroxyphenyl)imidazo[1,5-a]pyridin-8-yl)oxy)methyl)azetidin-1-yl)prop-2-en-1-one] | < 1000 nM
